# Experimental data taken from ChEMBL document CHEMBL1141766, “Isoprenylated naphthoquinone dimers firmianones A, B, and C from Firmiana platanifolia” (2005).
# Tested on: P388
# Experiment: Cytotoxicity against mouse P388 cells
# Assay type: functional
# Settings: read-out: ED50 (the source's name)
row,Structure (SMILES),EC50 [µM]
1,CC1=C[C@@H]2c3c(c(O)c4ccccc4c3O[C@@H]3O[C@H](CO)[C@@H](O)[C@H](O)[C@H]3O)[C@@]3(O)c4cccc(O)c4C(=O)[C@]2(/C=C/C(C)(C)O)[C@@]3(O)C1 [FIRMIANONE B],8.1
2,CC1=C[C@@H]2c3c(c(O)c4ccccc4c3O[C@@H]3O[C@H](CO)[C@@H](O)[C@H](O)[C@H]3O)[C@@]3(O)c4ccccc4C(=O)[C@]2(/C=C/C(C)(C)O)[C@@]3(O)C1 [FIRMIANONE A],6.5
